Tests used:
Experiment in all cases: RBC kinase panel
Assay type in all cases: biochemical
Details in all cases: ATP 10 μM, Data1, Data2
CDK6/cyclin D1 = target: T1, CDK6/cyclin D1 (Homo sapiens, UniProt Q00534)
T1 construct: purchased Reaction Biology Corporation
Procedure, shortened: (§1)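 Profiling covered 369 human kinases, each assayed in duplicate with the compound present at 1 μM and ATP at 10 μM.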

RON/MST1R = target: T2, RON/MST1R (Homo sapiens, UniProt Q04912)
T2 construct: purchased Reaction Biology Corporation
Procedure, shortened: as §1

PHKg1 = target: T3, PHKg1 (Homo sapiens, UniProt Q16816)
T3 construct: purchased Reaction Biology Corporation
Procedure, shortened: as §1

PKCiota = target: T4, PKCiota (Homo sapiens, UniProt P41743)
T4 construct: purchased Reaction Biology Corporation
Procedure, shortened: as §1

CDK1/cyclin E = target: T5, CDK1/cyclin E (Homo sapiens, UniProt P06493)
T5 construct: purchased Reaction Biology Corporation
Procedure, shortened: as §1

CAMK1g = target: T6, CAMK1g (Homo sapiens, UniProt Q96NX5)
T6 construct: purchased Reaction Biology Corporation
Procedure, shortened: as §1

c-MET = target: T7, c-MET (Homo sapiens, UniProt P08581)
T7 construct: purchased Reaction Biology Corporation
Procedure, shortened: as §1

NEK4 = target: T8, NEK4 (Homo sapiens, UniProt P51957)
T8 construct: purchased Reaction Biology Corporation
T8 sequence (P51957 whole entry): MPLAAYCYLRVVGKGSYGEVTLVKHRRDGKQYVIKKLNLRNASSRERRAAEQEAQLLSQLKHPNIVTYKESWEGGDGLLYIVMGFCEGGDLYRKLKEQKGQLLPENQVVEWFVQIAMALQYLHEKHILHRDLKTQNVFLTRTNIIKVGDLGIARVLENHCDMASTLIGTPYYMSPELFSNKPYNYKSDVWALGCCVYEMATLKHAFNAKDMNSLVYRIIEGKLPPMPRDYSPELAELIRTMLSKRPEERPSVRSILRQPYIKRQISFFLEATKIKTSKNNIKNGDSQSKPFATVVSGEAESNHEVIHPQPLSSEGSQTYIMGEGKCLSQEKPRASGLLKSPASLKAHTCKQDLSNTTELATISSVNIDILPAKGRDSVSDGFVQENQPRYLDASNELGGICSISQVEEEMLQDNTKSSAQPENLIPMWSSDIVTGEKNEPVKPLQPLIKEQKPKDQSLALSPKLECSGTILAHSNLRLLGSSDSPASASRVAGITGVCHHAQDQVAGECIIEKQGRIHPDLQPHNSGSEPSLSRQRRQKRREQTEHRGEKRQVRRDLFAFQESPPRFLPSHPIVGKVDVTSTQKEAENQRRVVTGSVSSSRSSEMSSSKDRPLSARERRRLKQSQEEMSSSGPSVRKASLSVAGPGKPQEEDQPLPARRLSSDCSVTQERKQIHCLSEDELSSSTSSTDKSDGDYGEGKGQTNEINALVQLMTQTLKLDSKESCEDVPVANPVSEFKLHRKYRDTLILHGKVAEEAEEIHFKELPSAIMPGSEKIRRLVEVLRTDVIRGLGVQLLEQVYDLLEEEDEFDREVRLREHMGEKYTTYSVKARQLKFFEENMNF
Procedure, shortened: as §1

TAK1 = target: T9, TAK1 (Homo sapiens, UniProt O43318)
T9 construct: purchased Reaction Biology Corporation
Procedure, shortened: as §1

PKCa = target: T10, PKCa (Homo sapiens, UniProt P17252)
T10 construct: purchased Reaction Biology Corporation
Procedure, shortened: as §1

PKCg = target: T11, PKCg (Homo sapiens, UniProt P05129)
T11 construct: purchased Reaction Biology Corporation
Procedure, shortened: as §1

LCK2/ICK = target: T12, LCK2/ICK (Homo sapiens, UniProt Q9UPZ9)
T12 construct: purchased Reaction Biology Corporation
T12 sequence (Q9UPZ9 whole entry): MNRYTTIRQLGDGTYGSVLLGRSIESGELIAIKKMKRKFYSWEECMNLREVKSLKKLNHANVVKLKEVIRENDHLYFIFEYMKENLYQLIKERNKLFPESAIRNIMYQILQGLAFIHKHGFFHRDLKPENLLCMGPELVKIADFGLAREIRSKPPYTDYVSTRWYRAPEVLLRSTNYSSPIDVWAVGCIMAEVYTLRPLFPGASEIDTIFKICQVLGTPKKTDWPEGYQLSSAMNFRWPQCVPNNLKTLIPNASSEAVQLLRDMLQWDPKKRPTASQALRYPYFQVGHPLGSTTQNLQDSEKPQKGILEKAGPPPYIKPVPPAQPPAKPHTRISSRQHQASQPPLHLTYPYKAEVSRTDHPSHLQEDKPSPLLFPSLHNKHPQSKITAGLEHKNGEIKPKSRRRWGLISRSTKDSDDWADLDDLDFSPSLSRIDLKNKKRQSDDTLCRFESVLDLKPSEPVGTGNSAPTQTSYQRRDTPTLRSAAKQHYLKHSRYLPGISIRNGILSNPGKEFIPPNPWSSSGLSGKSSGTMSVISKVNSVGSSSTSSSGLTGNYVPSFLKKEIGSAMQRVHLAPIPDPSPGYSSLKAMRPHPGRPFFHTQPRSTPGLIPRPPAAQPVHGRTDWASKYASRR
Procedure, shortened: as §1

MKK7 = target: T13, MKK7 (Homo sapiens, UniProt O14733)
T13 construct: purchased Reaction Biology Corporation
Procedure, shortened: as §1

EPHA7 = target: T14, EPHA7 (Homo sapiens, UniProt Q15375)
T14 construct: purchased Reaction Biology Corporation
T14 sequence (Q15375 28-998): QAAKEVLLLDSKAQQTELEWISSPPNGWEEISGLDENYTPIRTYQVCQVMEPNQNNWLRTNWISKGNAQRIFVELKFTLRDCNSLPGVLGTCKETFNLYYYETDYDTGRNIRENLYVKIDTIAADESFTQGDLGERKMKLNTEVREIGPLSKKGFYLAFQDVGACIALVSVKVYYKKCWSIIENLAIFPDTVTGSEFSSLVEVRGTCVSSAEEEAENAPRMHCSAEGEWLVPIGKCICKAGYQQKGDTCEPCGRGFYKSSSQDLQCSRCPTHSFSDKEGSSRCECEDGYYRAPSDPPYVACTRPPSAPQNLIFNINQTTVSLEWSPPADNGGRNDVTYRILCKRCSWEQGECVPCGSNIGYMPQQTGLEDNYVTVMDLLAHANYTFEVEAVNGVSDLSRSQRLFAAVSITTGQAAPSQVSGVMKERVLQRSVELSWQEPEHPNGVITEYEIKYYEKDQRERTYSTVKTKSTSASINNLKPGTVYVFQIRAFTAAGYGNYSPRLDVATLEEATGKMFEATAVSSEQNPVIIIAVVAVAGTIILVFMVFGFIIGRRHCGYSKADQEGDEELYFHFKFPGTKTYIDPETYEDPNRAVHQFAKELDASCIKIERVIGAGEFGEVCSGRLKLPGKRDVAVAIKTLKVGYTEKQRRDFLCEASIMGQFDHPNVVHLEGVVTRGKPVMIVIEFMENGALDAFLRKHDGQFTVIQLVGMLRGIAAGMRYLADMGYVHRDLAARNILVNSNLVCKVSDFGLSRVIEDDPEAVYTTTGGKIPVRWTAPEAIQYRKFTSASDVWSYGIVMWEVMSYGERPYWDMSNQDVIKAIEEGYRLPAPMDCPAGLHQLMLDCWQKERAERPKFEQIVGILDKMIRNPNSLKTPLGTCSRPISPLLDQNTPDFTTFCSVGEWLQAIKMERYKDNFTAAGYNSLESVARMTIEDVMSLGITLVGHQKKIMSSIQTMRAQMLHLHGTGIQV
Procedure, shortened: as §1

CDK5/p35 = target: T15, CDK5/p35 (Homo sapiens, UniProt Q00535)
T15 construct: purchased Reaction Biology Corporation
Procedure, shortened: as §1

EPHA1 = target: T16, EPHA1 (Homo sapiens, UniProt P21709)
T16 construct: purchased Reaction Biology Corporation
Procedure, shortened: as §1

EPHB3 = target: T17, EPHB3 (Homo sapiens, UniProt P54753)
T17 construct: purchased Reaction Biology Corporation
T17 sequence (P54753 34-998): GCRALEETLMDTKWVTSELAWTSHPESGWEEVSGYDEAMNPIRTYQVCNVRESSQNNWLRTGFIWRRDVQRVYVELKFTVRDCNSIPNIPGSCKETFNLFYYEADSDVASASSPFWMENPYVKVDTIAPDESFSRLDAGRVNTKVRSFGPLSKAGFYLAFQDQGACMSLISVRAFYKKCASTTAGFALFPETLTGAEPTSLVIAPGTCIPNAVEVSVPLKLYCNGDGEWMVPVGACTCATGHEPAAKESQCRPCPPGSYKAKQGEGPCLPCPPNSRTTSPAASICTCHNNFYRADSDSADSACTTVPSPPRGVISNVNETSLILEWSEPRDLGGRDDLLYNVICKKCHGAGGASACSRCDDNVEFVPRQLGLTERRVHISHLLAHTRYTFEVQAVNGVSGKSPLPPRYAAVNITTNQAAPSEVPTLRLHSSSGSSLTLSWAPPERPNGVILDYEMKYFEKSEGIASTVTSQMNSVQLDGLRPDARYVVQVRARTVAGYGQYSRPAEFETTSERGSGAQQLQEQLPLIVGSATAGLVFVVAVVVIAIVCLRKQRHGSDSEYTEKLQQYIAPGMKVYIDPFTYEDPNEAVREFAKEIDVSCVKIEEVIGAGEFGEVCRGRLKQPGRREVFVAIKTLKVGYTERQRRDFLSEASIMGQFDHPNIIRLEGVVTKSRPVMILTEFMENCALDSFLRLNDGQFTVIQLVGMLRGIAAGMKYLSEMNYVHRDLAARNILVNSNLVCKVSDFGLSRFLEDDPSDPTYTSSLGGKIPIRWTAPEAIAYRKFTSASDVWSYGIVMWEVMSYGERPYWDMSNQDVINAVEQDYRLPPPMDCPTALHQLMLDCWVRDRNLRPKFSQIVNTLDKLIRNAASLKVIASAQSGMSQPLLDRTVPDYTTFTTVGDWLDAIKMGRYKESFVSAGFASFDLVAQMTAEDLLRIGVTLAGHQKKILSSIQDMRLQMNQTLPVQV
Procedure, shortened: as §1

Aurora A = target: T18, Aurora A (Homo sapiens, UniProt O14965)
T18 construct: purchased Reaction Biology Corporation
T18 sequence (O14965 whole entry): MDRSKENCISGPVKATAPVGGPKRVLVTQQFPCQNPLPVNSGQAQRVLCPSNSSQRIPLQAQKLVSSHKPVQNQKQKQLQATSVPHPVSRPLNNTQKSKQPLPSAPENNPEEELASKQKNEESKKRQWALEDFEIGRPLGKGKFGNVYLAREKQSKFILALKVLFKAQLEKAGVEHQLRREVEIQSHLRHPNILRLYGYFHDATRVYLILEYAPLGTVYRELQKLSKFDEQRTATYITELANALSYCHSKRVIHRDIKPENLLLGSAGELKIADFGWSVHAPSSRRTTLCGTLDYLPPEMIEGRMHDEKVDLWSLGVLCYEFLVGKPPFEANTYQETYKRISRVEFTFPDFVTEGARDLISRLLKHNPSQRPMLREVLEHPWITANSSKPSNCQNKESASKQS
Procedure, shortened: as §1

PIM1 = target: T19, PIM1 (Homo sapiens, UniProt P11309)
T19 construct: purchased Reaction Biology Corporation
Procedure, shortened: as §1

CDK4/cyclin D1 = target: T20, CDK4/cyclin D1 (Homo sapiens, UniProt P11802)
T20 construct: purchased Reaction Biology Corporation
Procedure, shortened: as §1

CDK16/cyclin Y (PCTAIRE) = target: T21, CDK16/cyclin Y (PCTAIRE) (Homo sapiens, UniProt Q00536)
T21 construct: purchased Reaction Biology Corporation
Procedure, shortened: as §1

HIPK1 = target: T22, HIPK1 (Homo sapiens, UniProt Q86Z02)
T22 construct: purchased Reaction Biology Corporation
Procedure, shortened: as §1

AXL = target: T23, AXL (Homo sapiens, UniProt P30530)
T23 construct: purchased Reaction Biology Corporation
Procedure, shortened: as §1

KHS/MAP4K5 = target: T24, KHS/MAP4K5 (Homo sapiens, UniProt Q9Y4K4)
T24 construct: purchased Reaction Biology Corporation
Procedure, shortened: as §1

ALK3/BMPR1A = target: T25, ALK3/BMPR1A (Homo sapiens, UniProt P36894)
T25 construct: purchased Reaction Biology Corporation
Procedure, shortened: as §1

CDK6/cyclin D3 = target: T26, CDK6/cyclin D3 (Homo sapiens, UniProt Q00534)
T26 construct: purchased Reaction Biology Corporation
Procedure, shortened: as §1

PAK1 = target: T27, PAK1 (Homo sapiens, UniProt Q13153)
T27 construct: purchased Reaction Biology Corporation
T27 sequence (Q13153 whole entry): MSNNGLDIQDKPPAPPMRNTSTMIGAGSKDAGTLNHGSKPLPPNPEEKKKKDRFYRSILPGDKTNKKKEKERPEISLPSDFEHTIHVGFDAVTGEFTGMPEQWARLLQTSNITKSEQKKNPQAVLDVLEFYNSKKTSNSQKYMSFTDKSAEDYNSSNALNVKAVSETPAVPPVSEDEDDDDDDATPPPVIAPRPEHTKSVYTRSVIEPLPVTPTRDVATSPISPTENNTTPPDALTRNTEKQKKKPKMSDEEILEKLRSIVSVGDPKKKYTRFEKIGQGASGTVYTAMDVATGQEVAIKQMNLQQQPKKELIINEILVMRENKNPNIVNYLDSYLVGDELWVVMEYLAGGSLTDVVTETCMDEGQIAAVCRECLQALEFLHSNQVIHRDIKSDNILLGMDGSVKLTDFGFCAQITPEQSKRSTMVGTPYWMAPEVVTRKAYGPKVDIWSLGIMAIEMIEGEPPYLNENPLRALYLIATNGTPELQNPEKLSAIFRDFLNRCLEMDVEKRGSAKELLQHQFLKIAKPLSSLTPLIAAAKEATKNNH
Procedure, shortened: as §1

STK25/YSK1 = target: T28, STK25/YSK1 (Homo sapiens, UniProt O00506)
T28 construct: purchased Reaction Biology Corporation
Procedure, shortened: as §1

PKCb1 = target: T29, PKCb1 (Homo sapiens, UniProt P05771)
T29 construct: purchased Reaction Biology Corporation
Procedure, shortened: as §1

TXK = target: T30, TXK (Homo sapiens, UniProt P42681)
T30 construct: purchased Reaction Biology Corporation
Procedure, shortened: as §1

SNARK/NUAK2 = target: T31, SNARK/NUAK2 (Homo sapiens, UniProt Q9H093)
T31 construct: purchased Reaction Biology Corporation
T31 sequence (Q9H093 whole entry): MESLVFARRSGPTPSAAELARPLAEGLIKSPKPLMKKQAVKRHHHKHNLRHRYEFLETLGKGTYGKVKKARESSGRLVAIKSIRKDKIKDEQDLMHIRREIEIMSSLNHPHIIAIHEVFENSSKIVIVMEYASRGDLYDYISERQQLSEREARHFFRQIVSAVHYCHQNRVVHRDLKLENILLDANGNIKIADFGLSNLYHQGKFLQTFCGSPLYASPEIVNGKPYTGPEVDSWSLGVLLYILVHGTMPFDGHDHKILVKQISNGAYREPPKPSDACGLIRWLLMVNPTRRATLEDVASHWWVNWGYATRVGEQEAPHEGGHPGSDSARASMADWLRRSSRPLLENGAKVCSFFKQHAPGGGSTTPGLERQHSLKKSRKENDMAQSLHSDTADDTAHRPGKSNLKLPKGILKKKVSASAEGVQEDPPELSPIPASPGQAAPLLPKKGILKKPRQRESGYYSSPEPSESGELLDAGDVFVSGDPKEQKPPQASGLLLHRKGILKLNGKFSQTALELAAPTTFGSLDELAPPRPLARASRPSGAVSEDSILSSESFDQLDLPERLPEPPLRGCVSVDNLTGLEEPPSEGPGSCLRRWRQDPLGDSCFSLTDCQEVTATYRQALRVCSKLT
Procedure, shortened: as §1

STK21/CIT = target: T32, STK21/CIT (Homo sapiens, UniProt O14578)
T32 construct: purchased Reaction Biology Corporation
Procedure, shortened: as §1

PAK4 = target: T33, PAK4 (Homo sapiens, UniProt O96013)
T33 construct: purchased Reaction Biology Corporation
Procedure, shortened: as §1

`CC(=O)Nc1nc2ccc(-c3cnc(C)c(NC(=O)OC4CCCCC4)c3)cc2s1` [PK68, cyclohexyl (5-(2-acetamidobenzo[d]thiazol-6-yl)-2-methylpyridin-3-yl)carbamate] showed an Activity% (CDK6/cyclin D1; 1 μM) of 93.73%, an activity at 1 µM (CDK6/cyclin D1) of 93.8% and an Activity% (RON/MST1R; 1 μM) of 99.01%. It also gave an activity at 1 µM (RON/MST1R) of 99.6%, an Activity% (PHKg1; 1 μM) of 93.46% and an activity at 1 µM (PHKg1) of 93.6%. It also gave an Activity% (PKCiota; 1 μM) of 92.87%, an activity at 1 µM (PKCiota) of 97% and an Activity% (CDK1/cyclin E; 1 μM) of 101.92%. The activity at 1 µM (CDK1/cyclin E) was 102%, the Activity% (CAMK1g; 1 μM) was 92.94% and the activity at 1 µM (CAMK1g) was 93%. The Activity% (c-MET; 1 μM) was 101.99%, the activity at 1 µM (c-MET) was 102% and the Activity% (NEK4; 1 μM) was 97.97%. For the same molecule, the activity at 1 µM (NEK4) was 98.9%, the Activity% (TAK1; 1 μM) was 96.74% and the activity at 1 µM (TAK1) was 97.5%. For the same molecule, the Activity% (PKCa; 1 μM) was 98.94%, the activity at 1 µM (PKCa) was 99.5% and the Activity% (PKCg; 1 μM) was 95.02%. The activity at 1 µM (PKCg) was 95.8%, the Activity% (LCK2/ICK; 1 μM) was 100.77% and the activity at 1 µM (LCK2/ICK) was 101%. The Activity% (MKK7; 1 μM) was 93.03%, the activity at 1 µM (MKK7) was 98% and the Activity% (EPHA7; 1 μM) was 85.80%. The activity at 1 µM (EPHA7) was 86.9%, the Activity% (CDK5/p35; 1 μM) was 100.63% and the activity at 1 µM (CDK5/p35) was 102%. For the same molecule, the Activity% (EPHA1; 1 μM) was 100.48%, the activity at 1 µM (EPHA1) was 101% and the Activity% (EPHB3; 1 μM) was 98.23%. For the same molecule, the activity at 1 µM (EPHB3) was 98.8%, the Activity% (Aurora A; 1 μM) was 95.24% and the activity at 1 µM (Aurora A) was 95.4%. The Activity% (PIM1; 1 μM) was 100.16%, the activity at 1 µM (PIM1) was 102% and the Activity% (CDK4/cyclin D1; 1 μM) was 88.58%. It also gave an activity at 1 µM (CDK4/cyclin D1) of 88.8%, an Activity% (CDK16/cyclin Y (PCTAIRE); 1 μM) of 96.14% and an activity at 1 µM (CDK16/cyclin Y (PCTAIRE)) of 99.2%. For the same molecule, the Activity% (HIPK1; 1 μM) was 86.01%, the activity at 1 µM (HIPK1) was 87.4% and the Activity% (AXL; 1 μM) was 98.35%. It also gave an activity at 1 µM (AXL) of 98.8%, an Activity% (KHS/MAP4K5; 1 μM) of 75.34% and an activity at 1 µM (KHS/MAP4K5) of 76.5%. For the same molecule, the Activity% (ALK3/BMPR1A; 1 μM) was 103.05%, the activity at 1 µM (ALK3/BMPR1A) was 105% and the Activity% (CDK6/cyclin D3; 1 μM) was 81.98%. The activity at 1 µM (CDK6/cyclin D3) was 82.6%, the Activity% (PAK1; 1 μM) was 101.03% and the activity at 1 µM (PAK1) was 102%. It also gave an Activity% (STK25/YSK1; 1 μM) of 104.63%, an activity at 1 µM (STK25/YSK1) of 110% and an Activity% (PKCb1; 1 μM) of 84.55%. The activity at 1 µM (PKCb1) was 84.8%, the Activity% (TXK; 1 μM) was 99.58% and the activity at 1 µM (TXK) was 101%. The Activity% (SNARK/NUAK2; 1 μM) was 97.10%, the activity at 1 µM (SNARK/NUAK2) was 98.7% and the Activity% (STK21/CIT; 1 μM) was 121.90%. For the same molecule, the activity at 1 µM (STK21/CIT) was 125%, the Activity% (PAK4; 1 μM) was 101.97% and the activity at 1 µM (PAK4) was 104%.

— article PMC6591251, “Discovery of potent necroptosis inhibitors targeting RIPK1 kinase activity for the treatment of inflammatory disorder and cancer metastasis” (Cell Death & Disease, 2019)
